This note sets out measurements from patent US10105305B2, “Compositions and methods for promoting skin regeneration and hair growth” (THE JOHNS HOPKINS UNIVERSITY, priority 2014, dated 2018).

Experiment [1] has as its system neo-natal human epidermal keratinocytes (NHEK). Description: qRT-PCR gene expression in cultured keratinocytes (NHEK). Type of experiment: cell-based. The conditions noted are these: NHEK. On the procedure:
Cell Culture. Neo-natal human epidermal keratinocytes (Lonza, Walkersville, Md.) or lab-isolated foreskin keratinocytes were cultured in keratinocyte medium with added supplements (KGMGOLD). Treatment with recombinant IL-6 protein (50 ng/mL), cucurbitacin I (10-100 nM), poly (I:C) (20 μg/mL) and TLR3 pharmacological inhibitor (80 μM; EMD Millipore, Billerica, Mass.) was applied in basal medium containing transferrin, hydrocortisone and antibiotics for up to 24 hours. After 24 hours, treatment medium was replaced with KGM-GOLD and isolation of RNA as indicated.
Nucleofection. Nucleofection with siGENOME SMARTpoo1 Human Tap63, TLR3, REL-A and siCONTROL siRNA duplex oligonucleotides (Dharmacon-ThermoFischer Scientific) was performed in NHEK using the Amaxa 4D-Nucleofector according to manufacturer's instruction. Plated cells were treated with recombinant human IL-6 (50 ng/mL) protein or poly(I:C) (20 μg/mL) for 24 hours. Afterwards, treatment medium was removed and replaced with KGMGOLD complete medium for the duration of the experiment. Levels of appropriate gene expression were assessed by qRT-PCR using inventoried TaqMan reagents in three independent experiments.
Quantitative Real-Time PCR (qRT-PCR). Mouse skin was harvested prior to wounding and throughout wounding as described (Nelson et al., 2013). RNA was isolated from NHEK with RNeasy Mini Kit (Qiagen, Valencia, Calif.) with DNase I digestion. qRT-PCR was performed for genes of interest and 18S or ribosomal protein, large PO (RPLP0) (housekeeping genes) using inventoried TaqMan reagents. Differences in gene expression were assessed by comparative ΔΔCT values with fold change calculations.
For orientation: Quantitative PCR measures a nucleic acid by following its amplification.

For experiment [2], the system named is murine skin wounds. Description: Wound induced hair neogenesis (WIHN), regenerated hair follicles counted by CSLM. Type of experiment: in vivo, mouse. Particulars: wt C57BL/6J mice, CSLM ~WD20-24. Here is the method: Wound Induced Hair Neogenesis (WIHN). All animal protocols are approved by the Johns Hopkins University Animal Care and Use Committee. C57BL/6J, B6; 129SF2/J and TLR3 null mice (B6; 129S1-Tlr3tm1Flv/J) were obtained from The Jackson Laboratory. Mixed strain (C57BL/6J×FVB/N×SJL/J) animals were provided by Dr. Jean Richa (University of Pennsylvania).
A 1 cm2 excisional full-thickness wounds to the level of skeletal muscle on the backs of 21-day old male and female mice was performed as previously described (Ito et al., 2007; Nelson et al., 2013). Numbers of regenerated hair follicles were quantified in the re-epithelialized skin by non-invasive confocal scanning laser microscopy (CSLM) as published (Fan et al., 2011). For all experiments, […] of “intervention” was injected into healing wound (under scab) or applied topically into open wound as shown in Table 1 below.
Treatments during WIHN assay. Recombinant mouse IL-6 protein (R&D Systems, Minneapolis, Minn.) and poly(I:C) (High Molecular Weight; InVivogen, San Diego, Calif.) was diluted in sterile PBS immediately prior to injection. Cucurbitacin I (Tocris Biosciences/R&D Systems, Minneapolis Minn.) was dissolved in 10% EtOH/PBS to a final concentration of 1 mg/mL prior to injection. RNase III enzyme (Life Technologies, Grand Island N.Y.) was diluted in supplied reaction buffer

Experiment [3] deals with P-STAT3, TAp63, ΔNp63. The experiment is described as follows: Western blot of wound tissue in wt mice (P-STAT3, TAp63, ΔNp63). Type of experiment: in vivo, mouse. Here is the method: FIG. 2: IL-6 and pSTAT3 mediate TLR3 effects on WIHN. A) Mean fold change in IL-6 mRNA in healed scars at WD20-24 in HR vs. LR strains of mice as determined by qRT-PCR and normalized to housekeeping gene β-actin. B) Mean fold change in IL-6 mRNA after poly (I:C) addition (20 μg/mL) to NHEK for 6 hours or in strain matched wt and TLR3 KO mice 6 hours after wounding as determined by qRT-PCR and normalized to housekeeping gene RPLP0 (NHEK) or β-actin (mouse). C) Time course of IL-6 mRNA and protein expression throughout early stage wound healing in wt mice, as determined by qRT-PCR and ELISA, respectively. D) IL-6 (middle panels) and P-STAT3 (right panels; arrows) immunohistochemistry of healing scars at WD5 and WD8 in wt mice. Scale bar=50 μm. E) Cross-section histology of healed scar at WD22 after a single injection of IL-6 (25 ng) or PBS control at WD7. Regenerated hair follicles are marked with arrows. Scale bar=100 μm. F) Regenerated hair shafts (white, arrows) at ˜WD58-62 as visualized by dissecting microscope. G) WIHN in wt mice after single dose of rmIL-6 (25 ng) compared to PBS control as measured by CSLM. H) WIHN levels in wt mice after cucurbitacin I (2 mg/kg) or control as measured by CSLM. I) P-STAT 3 levels in the presence of cucurbitacin I (+) compared to control (−) in wt mice as measured by western blot and normalized to STAT3. PC=P-STAT3 positive control cell lysate. *p<0.05 by Student's T-test or Single Factor ANOVA.
FIG. 4: dsRNA and IL-6 induce keratinocyte stem cell genes. A) Mean fold change in TAp63 mRNA after IL-6 protein (50 ng/mL)+/−cucurbitacin I in NHEK as determined by qRT-PCR and normalized to housekeeping gene, RPLP0. B) TAp63 protein levels after IL-6 (25 ng) compared to PBS control in wt mice measured by western blot; normalized to β-actin. C) TAp63 and ΔNp63 protein levels after cucurbitacin I (2 mg/kg) compared to PBS control in wt mice measured by western blot; normalized to β-actin. D) Mean fold change in KRT1 mRNA with TAp63-specific or scrambled control siRNA in the presence of IL-6 (50 ng/mL) in NHEK as determined by qRT-PCR and normalized to housekeeping gene, RPLP0. E) Mean fold change in CBX4 mRNA after poly (I:C) (20 μg/mL) addition to NHEK for 24 hours as determined by qRT-PCR and normalized as in 4D. F) Mean fold change in CBX4 mRNA after IL-6 (50 ng/mL)+/−cucurbitacin I in NHEK for 24 hours as determined by qRT-PCR and normalized as in 4D. G) Mean fold change in KRT15 mRNA 72 hours after 24 hours of poly (I:C) (20 μg/mL) treatment to NHEK as determined by qRT-PCR and normalized as in 4D. H) Flow cytometry analysis of KRT15 protein expression 72 hours after 24 hours of poly (I:C) (20 μg/mL) or control to NHEK. *p<0.05 by Student's T-test or Single Factor ANOVA.
In general terms: In western blotting, separated proteins are transferred to a membrane and probed.

The test system of experiment [4] is healed murine wounds. Description: Histology and immunohistochemistry of healed mouse scars (epidermal thickness, cleaved caspase 3, Ki-67). It is filed as in vivo. On the procedure:
Immunohistochemistry, Immunocytochemistry and Histology. Immunohistochemistry was performed on formalin-fixed paraffin-embedded mouse skin samples using the avidin-biotin complex method and AEC development (Vector Laboratories). Indicated antibodies were applied overnight. Sections were counterstained with hematoxylin. Images were captured at 40× magnification using a Nikon Optiphot microscope and Nikon Elements F software. Histology was assessed by H&E after IL-6 addition. The epidermal thickness from the basal layer keratinocytes to beginning of stratum corneum in three locations per healed mouse wound in multiple histology sections was measured by Image J software.

Setting [5] is: IL-6 50 ng/mL + cucurbitacin I, 24 hours.
Setting [6] is: cucurbitacin I 2 mg/kg vs PBS, western blot.

For `CC(C)(O)/C=C/C(=O)[C@](C)(O)[C@H]1[C@H](O)C[C@@]2(C)[C@@H]3CC=C4[C@@H](C=C(O)C(=O)C4(C)C)[C@]3(C)C(=O)C[C@]12C` [cucurbitacin I], the “effect on IL-6-induced TAp63 mRNA increase” value in experiment [1] (IL-6 50 ng/mL + cucurbitacin I) was “reversed”. In experiment [1] (setting [5]), the “effect on IL-6-induced KRT1 decrease” value is “reversed” and the “effect on induced CBX4 increase” value is on record as “reversed”. The “decrease in the number of regenerated follicles” value in experiment [2] (cucurbitacin I 2 mg/kg injected at WD7) is reported as “greater than 3 fold”. Moreover, in experiment [3] (setting [6]), the ANp63 protein entry is on record as “corresponding increase” and the TAp63 protein entry was “decrease”. In addition, in experiment [3] (cucurbitacin I 2 mg/kg, western blot normalized to STAT3), the STAT3 phosphorylation entry is recorded as “strongly suppressed”.

B1: IL-6: recombinant mouse IL-6 protein in mice; recombinant human IL-6 in NHEK (protein, UniProt P08505 25-211, looked up)
Interleukin-6: FPTSQVRRGDFTEDTTPNRPVYTTSQVGGLITHVLWEIVEMRKELCNGNSDCMNNDDALAENNLKLPEIQRNDGCYQTGYNQEICLLKISSGLLEYHSYLEYMKNNLKDNKKDKARVLQRDTETLIHIFNQEVKDLHKIVLPTPISNALLTDKLESQKEWLRTKTIQFILKSLEEFLKVTLRSTRQT
On to B1, for which, in experiment [4] (healed murine wounds after rmIL-6 treatment), the “apoptosis or proliferation (cleaved caspase 3, Ki-67)” value is given as “no alterations”. Also, the “reduction in epidermal thickness vs controls” value in experiment [4] (healed scars, IL-6 25 ng at WD7 vs PBS) amounted to 2 fold. The “TAp63 mRNA” value in experiment [1] (IL-6 50 ng/mL) is “modest increase”. Also, in experiment [1] (IL-6 50 ng/mL, 24 hours), the CBX4 expression result is on record as “increase” and the “Keratin 1 (KRT1) differentiation marker expression” value was “profound decrease”. In experiment [2] (single rmIL-6 25 ng injected at WD7), the “increase in the number of regenerated follicles vs vehicle” value is around 3 fold. Also, in experiment [3] (IL-6 25 ng vs PBS, western blot normalized to β-actin), the “increase in the amount of TAp63 protein” value came out at 2.5 fold.
